For 16 compounds, IC50 results are on record in patent US9663523B2, “BET protein-inhibiting 5-aryltriazoleazepines” (BAYER PHARMA AKTIENGESELLSCHAFT, priority 2012, dated 2017).

Molecules are shown by their SMILES. pIC50: −log10 of the molar value.

Assay [1] concerns the target BRD4(1) (amino acids 44-168) (Homo sapiens (Human), UniProt O60885). In words: BRD4 binding strength, TR-FRET (HTRF) assay of BRD4(1) / acetylated histone H4 peptide interaction. Particulars: inhibition of BRD4(1)/Ac-H4 peptide interaction. From the text: To assess the BRD4 binding strength of the compounds according to the invention, the ability thereof to inhibit the interaction between BRD4 and acetylated histone H4 in a dose-dependent manner was quantified. For this purpose, a time-resolved fluorescence resonance energy transfer (TR-FRET) assay was used, which measures the binding between N-terminally His6-tagged BRD4(1) (amino acids 44-168) and a synthetic acetylated histone H4 (Ac-H4) peptide with sequence […]-biotin. The recombinant BRD4 protein produced in-house according to Filippakopoulos et al., Cell, 2012, 149:214-231 was expressed in E. coli and purified by means of (Ni-NTA) affinity and (Sephadex G-75) size exclusion chromatography. The Ac-H4 peptide can be purchased, for example, from Biosyntan (Berlin, Germany). […] For this purpose, 100-fold concentrated solutions in DMSO were prepared by serial dilutions (1:3.4) of a 2 mM stock solution into a clear, 384-well microtitre plate (Greiner Bio-One, Frickenhausen, Germany). From this, 50 nl were transferred into a black test plate (Greiner Bio-One, Frickenhausen, Germany). […] This was followed by a 10-minute incubation step at 22° C. for the pre-equilibration of putative complexes between BRD4 and the substances. Subsequently, 3 μl of a solution of 1.67 times the concentration (in assay buffer) consisting of Ac-H4 peptide (83.5 nM) and TR-FRET detection reagents [16.7 nM anti-6His-XL665 and 3.34 nM streptavidin cryptate (both from Cisbio Bioassays, Codolet, France), and 668 mM potassium fluoride (KF)] were added. The mixture was then incubated in the dark at 22° C. for one hour and then at 4° C. overnight. The formation of BRD4/Ac-H4 complexes was determined by the measurement of the resonance energy transfer from the streptavidin-Eu cryptate to the anti-6His-XL665 antibody present in the reaction. […] The ratio of the emissions at 665 nm and at 622 nm was taken as an indicator of the amount of BRD4/Ac-H4 complexes formed.

For another assay, the system named is B16F10 cells. In words: Cell proliferation (alamarBlue), B16F10. The note with it: Mus musculus, B16-F10; melanoma cell line, 96 hours incubation. It counts as cell-based. Here is the method: (§1) The ability of the compounds according to the invention to inhibit the proliferation of various cell lines was determined.
(§2) Cell viability was determined by means of the alamarBlue® reagent (Invitrogen). The cells were sown at different densities (MOLM-13, LAPC-4, MOLP-8 and MDA-MB-231: 4000 cells/well; B16F10: 400 cells/well) in 100 μl of growth medium on 96-well microtitre plates. After overnight incubation at 37° C., the fluorescence values (CI values) were determined. The plates were then treated with various substance dilutions and incubated at 37° C. for 96 hours (MOLM-13, MDA-MB-231 and B16F10 cells), 120 hours (MOLP-8 cells) or 168 hours (LAPC-4 cells). Subsequently, the fluorescence values were determined (CO values). For the data analysis, the CI values were subtracted from the CO values and the results were compared between cells which had been treated with various dilutions of the substance or only with buffer solution.
(§3) The compounds according to the invention were tested in the cell lines in Table 2, which represent the indications specified by way of example:
(§4) The indications corresponding to the different cell lines can be found in Table 2.
On the technique in general: Alamar Blue is a resazurin reagent that responds to reducing activity.

The test system of the next assay is MDA-MB-231 cells. Put plainly: Cell proliferation (alamarBlue), MDA-MB-231. Particulars: Homo sapiens, mammary carcinoma cell line, 96 hours incubation. The assay is classed as cell-based. How it is done:
as §1, §2, §3, §4

Another assay concerns MOLM-13 cells. In words: Cell proliferation (alamarBlue), MOLM-13. The assay is classed as cell-based. The note with it: Homo sapiens, acute myeloid leukaemia cell line, 96 hours incubation. Here is the method:
as §1, §2, §3, §4

For the next assay, the system named is LAPC-4 cells. In words: Cell proliferation (alamarBlue), LAPC-4. The assay is classed as cell-based. Particulars: Homo sapiens, LAPC4; prostate carcinoma (androgen receptor-positive) cell line, 168 hours incubation. How it is done:
as §1
as §2, with “values).” for “values). For the data analysis, the CI values were subtracted from the CO values and the results were compared between cells which had been treated with various dilutions of the substance or only with buffer solution.”
as §3, §4

The next assay has as its system MOLP-8 cells. In words: Cell proliferation (alamarBlue), MOLP-8. It counts as cell-based. Particulars: Homo sapiens, multiple myeloma cell line, 120 hours incubation. Here is the method: as §1
as §2, with “values).” for “values). For the data analysis, the CI values were subtracted from the CO values and the results were compared between cells which had been treated with various dilutions of the substance or only with buffer solution.”
as §3, §4

Consider `Cc1nnc2n1-c1ccccc1C(c1ccc(Cl)cc1)=CC2Cc1nc(C2CC2)no1` (stereo in doubt) [Example 37, (−)-(4R)-6-(4-Chlorophenyl)-4-[(3-cyclopropyl-1,2,4-oxadiazol-5-yl)methyl]-1-methyl-4H-[1,2,4]triazolo[4,3-a][1]benzazepine], for which the pIC50 was 7.30 in assay [1]; 6.66 with B16F10 cells; 6.42 in the assay on MDA-MB-231 cells; 6.48 in the assay on MOLM-13 cells; 6.51 in the assay with LAPC-4 cells.

Regarding `Cc1nnc2n1-c1ccccc1C(c1ccc(Cl)cc1)=CC2CC(=O)Nc1ccc2c(c1)CC(=O)N2` (centres unmarked) [Example 20, 2-[6-(4-chlorophenyl)-1-methyl-4H-[1,2,4]triazolo[4,3-a][1]benzazepin-4-yl]-N-(2-oxo-2,3-dihydro-1H-indol-5-yl)acetamide], the pIC50 in assay [1] was 6.62; with B16F10 cells it was 6.46; with MDA-MB-231 cells, 6.01; with MOLM-13 cells, 6.27; in the assay with LAPC-4 cells it was 6.85.

Turning to `Cc1nnc2n1-c1ccccc1C(c1ccc(Cl)cc1)=CC2CC(=O)N1CC2(CCS2(=O)=O)C1` (centres unmarked) [Example 18, 2-[6-(4-chlorophenyl)-1-methyl-4H-[1,2,4]triazolo[4,3-a][1]benzazepin-4-yl]-1-(1,1-dioxido-1-thia-6-azaspiro[3.3]hept-6-yl)ethanone], the figures for the pIC50 in the assay with B16F10 cells, with MDA-MB-231 cells and with MOLM-13 cells were 6.44, 6.10 and 6.48, respectively.

Turning to `Cc1nnc2n1-c1ccccc1C(c1ccc(Cl)cc1)=C[C@H]2CC(=O)N1CC2CCC(C1)O2` (single isomer, unassigned; (-)) [Example 33], the pIC50 in assay [1] is 6.35; with B16F10 cells, 6.40; in the assay on MDA-MB-231 cells it was 5.89; in the assay with MOLM-13 cells, 6.48; in the assay with LAPC-4 cells, 6.82.

In the case of `Cc1nnc(C[C@@H]2C=C(c3ccc(Cl)cc3)c3cc(OC(F)(F)F)ccc3-n3c(C)nnc32)o1` [Example 55, (4R)-6-(4-chlorophenyl)-1-methyl-4-[(5-methyl-1,3,4-oxadiazol-2-yl)methyl]-8-(trifluoromethoxy)-4H-[1,2,4]triazolo[4,3-a][1]benzazepine], the pIC50 in assay [1] is 7.05; in the assay with B16F10 cells, 6.57; in the assay with MOLP-8 cells it was 6.77; with MOLM-13 cells, 6.74.

With `Cc1nnc(CC2C=C(c3ccc(Cl)cc3)c3ccccc3-n3c(C)nnc32)s1` (stereo in doubt) [Example 42, (+)-(4R)-6-(4-chlorophenyl)-1-methyl-4-[(5-methyl-1,3,4-thiadiazol-2-yl)methyl]-4H-[1,2,4]triazolo[4,3-a][1]benzazepine], the pIC50 was 7.30 in assay [1], 6.85 with B16F10 cells, 6.96 with MOLP-8 cells and 6.77 in the assay with MOLM-13 cells.

As for `Cc1nnc2n1-c1ccc(OC(F)(F)F)cc1C(c1ccc(Cl)cc1)=C[C@H]2CC(=O)N1CC2(COC2)C1` [Example 51], the pIC50 was 6.24 in the assay on B16F10 cells, 6.44 in the assay with MOLP-8 cells and 6.41 with MOLM-13 cells.

`Cc1nnc2n1-c1ccccc1C(c1ccc(Cl)cc1)=CC2CC(=O)OC(C)(C)C` (centres unmarked) [Example 8, tert-butyl [6-(4-chlorophenyl)-1-methyl-4H-[1,2,4]triazolo[4,3-a][1]benzazepin-4-yl]acetate]: the pIC50 is 6.00 in the assay with B16F10 cells, 5.32 in the assay with MOLP-8 cells, 5.41 in the assay with MOLM-13 cells and 6.09 in the assay on LAPC-4 cells.

With `CCNC(=O)C[C@@H]1C=C(c2ccc(Cl)cc2)c2cc(OC(F)(F)F)ccc2-n2c(C)nnc21` [Example 52, 2-[(4R)-6-(4-chlorophenyl)-1-methyl-8-(trifluoromethoxy)-4H-[1,2,4]triazolo[4,3-a][1]benzazepin-4-yl]-N-ethylacetamide], the pIC50 in assay [1] was 6.72; with B16F10 cells, 6.38; in the assay with MOLP-8 cells, 6.59; in the assay with MOLM-13 cells it was 6.51.

In the case of `Cc1nnc2n1-c1ccc(OC(F)(F)F)cc1C(c1ccc(Cl)cc1)=CC2CC(=O)OC(C)(C)C` (stereo in doubt) [Example 50, tert-butyl (−)-[(4R)-6-(4-chlorophenyl)-1-methyl-8-(trifluoromethoxy)-4H-[1,2,4]triazolo[4,3-a][1]benzazepin-4-yl]acetate], the pIC50 in assay [1] is 6.10; in the assay on B16F10 cells it was 5.93; in the assay with MOLP-8 cells, 5.98; in the assay with MOLM-13 cells, 6.06.

As to `Cc1nnc2n1-c1ccc(OC(F)(F)F)cc1C(c1ccc(Cl)cc1)=C[C@H]2CC(=O)NCCN1CCOCC1` [Example 53, 2-[(4R)-6-(4-chlorophenyl)-1-methyl-8-(trifluoromethoxy)-4H-[1,2,4]triazolo[4,3-a][1]benzazepin-4-yl]-N-[2-(morpholin-4-yl)ethyl]acetamide], the pIC50 in assay [1] is 7.10; in the assay on B16F10 cells it was 6.66; in the assay with MOLP-8 cells, 6.96; in the assay with MOLM-13 cells, 6.82.

For the compound `Cc1nnc2n1-c1ccc(OC(F)(F)F)cc1C(c1ccc(Cl)cc1)=C[C@H]2CC(=O)N1CCN2C(=O)CCC2C1` (stereo partly drawn) [Example 56, 2-{[(4R)-6-(4-chlorophenyl)-1-methyl-8-(trifluoromethoxy)-4H-[1,2,4]triazolo[4,3-a][1]benzazepin-4-yl]acetyl}hexahydropyrrolo[1,2-a]pyrazin-6(2H)-one], the pIC50 in assay [1] is 6.74; in the assay with B16F10 cells it was 6.66; with MOLP-8 cells, 6.92; in the assay on MOLM-13 cells it was 6.82.

As to `Cc1nnc2n1-c1ccccc1C(c1cccc(Cl)c1)=CC2CC(=O)N1CC2(COC2)C1` (centres unmarked) [Example 10, 2-[6-(3-chlorophenyl)-1-methyl-4H-[1,2,4]triazolo[4,3-a][1]benzazepin-4-yl]-1-(2-oxa-6-azaspiro[3.3]hept-6-yl)ethanone], the pIC50 in assay [1] was 6.14; in the assay with B16F10 cells, 5.52; with MOLP-8 cells it was 5.89; with MOLM-13 cells it was 5.58; with LAPC-4 cells, 5.79.

As to `Cc1nnc(CC2C=C(c3ccc(Cl)cc3)c3cc(OC(F)(F)F)ccc3-n3c(C)nnc32)o1` (centres unmarked) [Example 54, 6-(4-chlorophenyl)-1-methyl-4-[(5-methyl-1,3,4-oxadiazol-2-yl)methyl]-8-(trifluoromethoxy)-4H-[1,2,4]triazolo[4,3-a][1]benzazepine], the pIC50 in assay [1] was 6.89; in the assay on B16F10 cells, 6.30; with MOLP-8 cells, 6.44; in the assay on MOLM-13 cells, 6.52.

For the compound `Cc1nnc2n1-c1ccccc1C(c1ccc(Cl)cc1)=C[C@H]2Cc1nnc(COCc2ccccc2)o1` [Example 57, (4R)-4-({5-[(benzyloxy)methyl]-1,3,4-oxadiazol-2-yl}methyl)-6-(4-chlorophenyl)-1-methyl-4H-[1,2,4]triazolo[4,3-a][1]benzazepine], the pIC50 in assay [1] was 6.57; in the assay on B16F10 cells, 6.24; in the assay on MOLP-8 cells, 6.38; in the assay with MOLM-13 cells, 6.39.

As for `Cc1nnc2n1-c1ccc(OC(F)(F)F)cc1C(c1ccc(Cl)cc1)=CC2CC(=O)OC(C)(C)C` (centres unmarked) [Example 49, tert-butyl [6-(4-chlorophenyl)-1-methyl-8-(trifluoromethoxy)-4H-[1,2,4]triazolo[4,3-a][1]benzazepin-4-yl]acetate], the pIC50 in the assay with B16F10 cells is 5.66; in the assay on MOLP-8 cells, 5.72; in the assay on MOLM-13 cells it was 5.77.

As a reminder, the pIC50 is the IC50 on a negative log10 scale, so that one unit is a factor of ten. A higher pIC50 goes with a low IC50.
